Data reported in the supplement of paper PMC13380429.

What was measured:
Details in all cases: 72 h
[1] = tested on: Calu-3; experiment: cell viability relative to DMSO; higher = less toxic
[2] = tested on: Vero E6; experiment: as above
[3] = tested on: HepG2; experiment: as above
[4] = tested on: Caco-2; experiment: as above
[5] = tested on: U2OS; experiment: as above
[6] = tested on: Calu-3; experiment: relative viability EC50 (midpoint between 100% and the lowest measured viability); higher = less toxic
[7] = tested on: Vero E6; experiment: as above
[8] = tested on: HepG2; experiment: as above
[9] = tested on: Caco-2; experiment: as above
[10] = tested on: U2OS; experiment: as above
[11] = tested on: Calu-3; experiment: drug sensitivity score (DSS) for viability; higher = more toxic; extreme values may be limits of the assay
[12] = tested on: Vero E6; experiment: as above
[13] = tested on: HepG2; experiment: as above
[14] = tested on: Caco-2; experiment: as above
[15] = tested on: U2OS; experiment: as above

| SMILES | cell viability ([1]; 1 nM) | cell viability ([1]; 10 nM) | cell viability ([1]; 100 nM) | cell viability ([1]; 1000 nM) | cell viability ([1]; 10000 nM) | cell viability ([2]; 1 nM) | cell viability ([2]; 10 nM) | cell viability ([2]; 100 nM) | cell viability ([2]; 1000 nM) | cell viability ([2]; 10000 nM) | cell viability ([3]; 1 nM) | cell viability ([3]; 10 nM) | cell viability ([3]; 100 nM) | cell viability ([3]; 1000 nM) | cell viability ([3]; 10000 nM) | cell viability ([4]; 1 nM) | cell viability ([4]; 10 nM) | cell viability ([4]; 100 nM) | cell viability ([4]; 1000 nM) | cell viability ([4]; 10000 nM) | cell viability ([5]; 1 nM) | cell viability ([5]; 10 nM) | cell viability ([5]; 100 nM) | cell viability ([5]; 1000 nM) | cell viability ([5]; 10000 nM) | relative viability EC50 [6] | relative viability EC50 [7] | relative viability EC50 [8] | relative viability EC50 [9] | relative viability EC50 [10] | drug sensitivity score [11] | drug sensitivity score [12] | drug sensitivity score [13] | drug sensitivity score [14] | drug sensitivity score [15] |
| --- | --- | --- | --- | --- | --- | --- | --- | --- | --- | --- | --- | --- | --- | --- | --- | --- | --- | --- | --- | --- | --- | --- | --- | --- | --- | --- | --- | --- | --- | --- | --- | --- | --- | --- | --- |
| CCCCCCCC/C=C\CCCCCCCC(=O)NCc1ccc(O)c(OC)c1 [olvanil] | 100% | 95% | 101% | 118% | 94.4% | 102% | 101% | 95.5% | 103% | 101% | 96.3% | 97.2% | 104% | 94.3% | 96.5% | 97.2% | 100% | 98% | 94.3% | 100% | 102% | 98.1% | 95.8% | 95.9% | 91% | > 10 µM | > 10 µM | > 10 µM | > 10 µM | > 10 µM | 0 | 0 | 0 | 0 | 0 |
| O=C(Nc1cc(Cl)cc(Cl)c1O)c1c(O)c(Cl)cc(Cl)c1Cl [oxyclozanide] | 107% | 90.4% | 104% | 88.7% | 103% | 95% | 98.6% | 96.2% | 101% | 95.4% | 105% | 99.2% | 96.4% | 98% | 101% | 98.4% | 106% | 91.7% | 91.9% | 97.4% | 98.7% | 97.6% | 97.8% | 100% | 97.2% | > 10 µM | > 10 µM | > 10 µM | > 10 µM | > 10 µM | 0 | 0 | 0 | 0 | 0 |
| CN1CCCN=C1COC(=O)C(O)(c1ccccc1)C1CCCCC1 (stereo not given) [oxyphencyclimine] | 93% | 102% | 102% | 98.8% | 94.7% | 103% | 104% | 100% | 91.7% | 91.8% | 93.6% | 102% | 105% | 91.3% | 92.2% | 99.8% | 99.3% | 100% | 106% | 102% | 97.2% | 101% | 94.6% | 97.3% | 93% | > 10 µM | > 10 µM | > 10 µM | > 10 µM | > 10 µM | 0 | 0 | 0 | 0 | 0 |
| Cc1ccc(-c2cn3c4c(sc3n2)CCCC4)cc1 [pifithrin-cyclic] | 98.3% | 105% | 100% | 109% | 107% | 119% | 96.5% | 109% | 102% | 97.1% | 105% | 99.1% | 105% | 108% | 91.7% | 104% | 93% | 91.2% | 105% | 92.9% | 102% | 101% | 101% | 102% | 98.5% | > 10 µM | > 10 µM | > 10 µM | > 10 µM | > 10 µM | 0 | 0 | 0 | 0 | 0 |
| OC[C@H]1O[C@@H](Oc2cc(O)cc(/C=C/c3ccc(O)cc3)c2)[C@H](O)[C@@H](O)[C@@H]1O [polydatin] | 100% | 101% | 96.9% | 103% | 102% | 101% | 104% | 95.7% | 100% | 99% | 98.1% | 93.9% | 93.2% | 96.6% | 96.8% | 99.4% | 97.2% | 97.4% | 101% | 96.3% | 101% | 103% | 102% | 99.4% | 98.2% | > 10 µM | > 10 µM | > 10 µM | > 10 µM | > 10 µM | 0 | 0 | 0 | 0 | 0 |
| CC(C)N(CCNC(=O)CN1CCCC1=O)C(C)C [pramiracetam] | 95.7% | 103% | 109% | 100% | 103% | 93.9% | 97% | 94.4% | 99.7% | 108% | 101% | 100% | 97.6% | 107% | 104% | 94.6% | 93.6% | 114% | 96.4% | 98.9% | 98.8% | 93.2% | 103% | 95.6% | 105% | > 10 µM | > 10 µM | > 10 µM | > 10 µM | > 10 µM | 0 | 0 | 0 | 0 | 0 |
| CCCC(C(=O)OCCN(CC)CC)(c1ccccc1)c1ccccc1 [proadifen] | 99.3% | 93.1% | 101% | 105% | 99.6% | 97.9% | 96% | 98.4% | 97.3% | 99.8% | 101% | 100% | 92.6% | 95% | 88.1% | 89.8% | 101% | 102% | 101% | 87.9% | 93% | 97.9% | 99.1% | 102% | 98.5% | > 10 µM | > 10 µM | > 10 µM | > 10 µM | > 10 µM | 0 | 0 | 0 | 0 | 0 |
